The text below walks through data of patent US20240132559A1, “COMPOSITIONS AND METHODS FOR MODULATING MYC EXPRESSION” (FLAGSHIP PIONEERING INNOVATIONS V, INC., priority 2020, published 2024).

For one assay, the system named is SK-HEP-1 cells. The experiment in a line: Sorafenib dose response viability with bi-cistronic ZF9-MQ1_ZF3-KRAB (CellTiter-GLO). It is filed as cell-based. The conditions noted are these: Homo sapiens, SK-HEP1, 72 h, SKHEP-1, 72-hour. The protocol: (§1) In this example, the effect of bi-cistronic ZF9-MQ1_ZF3-KRAB on the small molecule sorafenib (multi-kinase inhibitor) efficacy in HCC cell lines was evaluated. Sorafenib is used as a standard of care in HCC and high MYC levels can predict sorafenib resistance. It was hypothesized that bi-cistronic ZF9-MQ1_ZF3-KRAB may re-sensitize HCC to sorafenib through its downregulation of MYC. Dose response assays were utilized to evaluate if bi-cistronic ZF9-MQ1_ZF3-KRAB treatment could decrease the IC50 of sorafenib.
(§2) To evaluate potential synergy between bi-cistronic ZF9-MQ1_ZF3-KRAB and sorafenib, Hep 3B or SK-HEP-1 cells were plated in 96 well plates at 10,000 cells per well. Cells were then treated with sorafenib at a dose range between 0.1 and 25 μM, with serial dilution of 1:2. Lipid mix carrying bi-cistronic ZF9-MQ1_ZF3-KRAB was then added to a subset of the wells at a dose of 0.1 or 0.6 μg/mL. A set of cells was treated with sorafenib alone to use as control. Following 72-hour treatment, cells were lysed with the CellTiter-GLO® reagent and luminescence was quantified using the Glo Max. Relative cell viability was calculated by averaging the untreated values and dividing each experimental luciferase value by that average.
A general note: Cellular ATP, detected with luciferase, serves as a proxy for viable cell number.

In a further assay the test system is Hep 3B cells. The description is as above. It is filed as cell-based. Particulars: Homo sapiens, Hep3B, 72 h. The procedure: as §1, §2
In a further assay the test system is SKHEP1 and Hep 3B cells. The experiment in a line: IC50 of sorafenib or JQ1 in combination with bi-cistronic ZF9-MQ1_ZF3-KRAB. It is filed as cell-based, human. The conditions noted are these: for IC50 of sorafenib: in combination with 0.1 ug/ml bi-cistronic ZF9-MQ1_ZF3-KRAB; for IC50: Homo sapiens.
Another assay deals with subcutaneous H460 tumors. The experiment in a line: H460 subcutaneous tumor model in nude mice. Particulars: 50 mg/kg daily. It is filed as in vivo, mouse. The procedure:
Disease was induced in nude mice by the implantation of subcutaneous H460 tumor cells into the left flank. Treatment was initiated when mean tumor volume reached approximately 100-150 mm^3. Mice were divided into treatment groups so that mean tumor volume in each group were approximately equal. Tumors were treated with PBS (vehicle), sorafenib (standard of care), non-coding RNA formulated in MC3 LNPs, or ZF9-MQ1 mRNA formulated in MC3 LNPs. PBS, Non-coding RNA (SEQ ID NO: 198) LNP and ZF9-MQ1 LNP were dosed at 3 mg/kg administered every five days. Sorafenib was dosed daily at 50 mg/kg. The length and width of tumors were measured twice weekly. Tumor volumes were calculated as (width^2×length)/2.

Assay [1] concerns HCC cells (HepG2, Hep3B, SKHEP1, SNU-182, SNU-449). The assay can be described thus: Cell viability (CellTiter-GLO) of human HCC cell lines. It is filed as cell-based. The conditions noted are these: 72 and 168 hours. From the text:
This example describes down-regulating MYC1 expression by targeting KRAB effector fused to zinc finger domains to the upstream region directly adjacent to the CTCF motif (GD-28859). In this example, zinc finger-directed KRAB effectors (ZF-KRAB effectors) were designed to bind the anchor site at the DNA region targeted by GD-28859 (FIG. 4A). 7 constructs (dCas-KRAB/GD-59, ZF1-KRAB, ZF2-KRAB, ZF3-KRAB, ZF4-KRAB, ZF5-KRAB, and ZF6-KRAB) were designed and screened in human HCC models (HepG2, Hep3B, SKHEP1). Negative controls for these experiments included untreated cells and dCas9-KRAB/GD-28859 was used as positive control. RNA was isolated from two independent experiments, each done in biological triplicate, using the Rneasy® Plus 96-well Kit (Qiagen) following the Manufacture's protocol. RNA samples were retrotranscribed to cDNA using LunaScript® RT SuperMix Kit (NEB) and analyzed by quantitative PCR (qPCR) (in technical triplicates) using a MYC specific Taqman primer/probe set assay with the TaqMan™ Fast Advanced Master Mix (Thermo Scientific). MYC expression was quantified relative to the expression of GAPDH reference genes using the ΔΔCt method, the untreated and dCas9(no-effector) samples were used as calibrators. Cell viability was assessed by ATP quantification using CellTiter-GLO® Luminescent Cell Viability Assay (Promega #G9241). […]

In assay [2] the test system is MYC super-enhancer and MYC promoter region. The assay can be described thus: Targeted bisulfite sequencing of super-enhancer and promoter regions in NCI-H2009. It is filed as cell-based, human. The conditions noted are these: guides 29833 and 29914, 72 hours. The procedure:
The CRISPR-dCas9 system was modified by tethering it to epigenetic repressor: MQ1. These molecules modulate transcriptional repression methylating the CpG nucleotides of the DNA. The effector mRNA and super-enhancer guide RNAs (29833 and 29914) were co-delivered using LNP delivery with SSOP with mRNA delivery of GFP or a dCAS9-no effector construct (dCas9-NE) as negative controls. NCSLC cell line NCI-H2009 was seeded in a 6 well plates in growth media (˜100000 cells/well). LNP formulations (2.5 ug/ml) were then added to the cells to transfect the effector mRNA/guide RNA then incubated for 72 hours. DNA was isolated using Lucigen QuickExtract™ DNA extraction kit and methylated regions were determined using targeted bisulfite sequencing of the promoter and super-enhancer regions.

A further assay has as its system MYC. The experiment in a line: MYC mRNA expression by qPCR in human HCC cell lines after LNP transfection. Particulars: HepG2, Hep3B and SKHEP1. It is filed as cell-based. The procedure: In this example, dCas9-KRAB mRNA was delivered to human HCC cell lines (HepG2, Hep3B and SKHEP1) with individual sgRNA (Table 1 and FIG. 1A-B) targeting it to the CTCF motif (GD-28616), CTCF “anchor” site (GD-28859), or the MYC promoter (GD-28617). The effector mRNA and sgRNA were co-delivered using LNP delivery with SSOP. For controls, both (1) dCas9 (no effector) combined with sgRNA, and (2) untreated cells were used to assess changes. HCC cells were seeded in 96-well plates in growth media (5000 cell/well). LNP formulations (2-2.5 ug/ml) were then added to the cells to transfect the mRNA and sgRNA. All treatments were done in biological triplicate. Timepoints ranging from 24-168 hours were assessed for MYC expression and cell viability. RNA was isolated from four independent experiments using the RNeasy® plus 96-well Kit (Qiagen) following the Manufacture's protocol. RNA samples were retrotranscribed to cDNA using LunaScript® RT SuperMix Kit (NEB) and analyzed by quantitative PCR (qPCR) (in technical triplicates) using a MYC specific TaqMan™ primer/probe set assay with the TaqMan™ Fast Advanced Master Mix (Thermo Scientific). MYC expression was quantified relative to the expression of GAPDH reference genes using the ΔΔCt method. The untreated and dCas9(no-effector) samples were used as calibrators. […]

The mark [3] stands for this setting: bi-cistronic ZF9-MQ1_ZF3-KRAB 0 μg/ml.
Setting [4] is: bi-cistronic ZF9-MQ1_ZF3-KRAB 0.1 μg/ml.
Setting [5] is: bi-cistronic ZF9-MQ1_ZF3-KRAB 0.6 μg/ml.

“Also recorded” adds a separate entry of the source.

As to `CNC(=O)c1cc(Oc2ccc(NC(=O)Nc3ccc(Cl)c(C(F)(F)F)c3)cc2)ccn1` [sorafenib], the IC50 in the assay with SK-HEP-1 cells (setting [3]) came to 12.3 µM; in the assay on SK-HEP-1 cells (setting [4]) it was 12.3 µM; with SK-HEP-1 cells (setting [5]), 10.7 µM; in the assay on Hep 3B cells (setting [3]), 4.4 µM; with Hep 3B cells (setting [4]), 4.25 µM; with Hep 3B cells (setting [5]) it was 2.9 µM. Besides, the IC50 in the assay with SKHEP1 and Hep 3B cells (Hep3B, Hep 3B, in combination with 0.6 ug/ml bi-cistronic ZF9-MQ1_ZF3-KRAB) was 2.9 µM; in the assay with SKHEP1 and Hep 3B cells (Hep3B, Hep 3B, sorafenib without bi-cistronic ZF9-MQ1_ZF3-KRAB) it was 4.4 µM; in the assay with SKHEP1 and Hep 3B cells (SK-HEP1, SKHEP1, in combination with 0.6 ug/ml bi-cistronic ZF9-MQ1_ZF3-KRAB), 10.7 µM; in the assay on SKHEP1 and Hep 3B cells (SK-HEP1, SKHEP1, sorafenib without bi-cistronic ZF9-MQ1_ZF3-KRAB), 12.3 µM. Moreover, the IC50 of sorafenib entry is “did not change significantly” with SKHEP1 and Hep 3B cells (Hep 3B); “did not change significantly” in the assay on SKHEP1 and Hep 3B cells (SKHEP1). In addition, in the assay on subcutaneous H460 tumors, the “average tumor volume at the study termination” value was found to be 752 mm^3.
Regarding “dCas9-MQ1: dCas9 fused to MQ1, SEQ ID NO: 35”, the “effect on viability (in words)” value was “dramatically decreased viability” in assay [1] (HepG2 and Hep3B); “minimally affected” in assay [1] (SK-HEP-1). In assay [2], the “methylation of the distal promoter region” value is listed as “about 50%”. The “MYC mRNA down-regulation” value with MYC (72 hours) was 50-90%. Moreover, in the assay on MYC, the “MYC expression down-regulation (in words)” value is reported as “significantly greater effect on MYC expression than any of the human dCas9-DNMTs examined or dCas9-KRAB; also recorded: down-regulated MYC expression”.

As a reminder, the IC50 is the concentration that gives 50% inhibition.
